According to patent US20230241226A1, “COMPOUNDS FOR TARGETED DEGRADATION OF CARRIER PROTEINS AND USES THEREOF” (CeMM - Forschungszentrum für Molekulare Medizin GmbH, priority 2019, published 2023):
Each block holds one molecule with its values, some of them ahead of it.

Tests used:
Assay type in all cases: cell-based
Strep/HA SLC9A6 = molecular target: T1, Strep/HA SLC9A6 (Homo sapiens, UniProt Q92581); assay: Selectivity across SLC9 family: degradation of exogenous Strep/HA SLC9A6; details: HAP1; 250 or 750 nM; 16 hours
T1 construct: expressed in transfected cells; host or cells: HAP1 (lentiviral, pRRL Strep-HA; cDNA synthesized by Genescript)
T1 sequence (Q92581 1-669 isoform Q92581-1): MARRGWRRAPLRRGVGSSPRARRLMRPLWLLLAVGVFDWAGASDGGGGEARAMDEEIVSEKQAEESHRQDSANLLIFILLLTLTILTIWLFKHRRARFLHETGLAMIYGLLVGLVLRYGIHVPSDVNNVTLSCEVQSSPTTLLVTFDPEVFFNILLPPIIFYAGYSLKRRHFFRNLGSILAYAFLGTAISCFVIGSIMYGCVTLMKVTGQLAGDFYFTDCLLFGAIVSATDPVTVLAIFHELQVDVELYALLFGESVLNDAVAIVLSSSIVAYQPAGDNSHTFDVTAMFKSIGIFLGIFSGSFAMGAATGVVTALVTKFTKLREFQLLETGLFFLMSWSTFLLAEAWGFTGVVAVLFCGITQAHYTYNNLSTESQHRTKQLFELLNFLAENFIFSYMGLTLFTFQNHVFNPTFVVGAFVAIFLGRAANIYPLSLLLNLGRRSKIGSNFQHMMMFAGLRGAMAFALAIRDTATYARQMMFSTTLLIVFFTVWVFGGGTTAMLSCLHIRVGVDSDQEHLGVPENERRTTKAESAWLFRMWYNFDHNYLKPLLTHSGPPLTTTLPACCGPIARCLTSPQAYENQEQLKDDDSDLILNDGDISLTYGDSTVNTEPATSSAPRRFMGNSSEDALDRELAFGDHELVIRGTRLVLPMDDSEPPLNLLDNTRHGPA
Description: (§1) (E) Selectivity of d9A1-2 was tested across HAP1 cell lines expressing Strep/HASLC9A1, 9A4, 9A5, 9A8, 9A2, 9B2, 9A6, 9A9, and 9A3. Cells were treated with varying concentrations of d9A1-2 for 16 hours, after which degradation of the exogenous SLCs was monitored.
(§2) SLC1A5, SLC2A1, SLC2A3, SLC16A1, SLC38A1, SLC38A2 were obtained as gateway-compatible pENTR/pDONR vectors from the Harvard PlasmID Repository. SLC39A7 was obtained from Dharmacon, GE Healthcare. The following vectors were synthesized by Genescript: SLC4A4, SLC7A3, SLC38A9, SLC25A1, SLC9A1, SLC9A2, SLC9A3, SLC9A4, SLC9A5, SLC9A6, SLC9A7, SLC9A8, and SLC9B2. SLC30A9, SLC33A1, SLC35B2, SLC25A26, and MTCH2 were a gift from the RESOLUTE consortium. cDNAs were transferred into gateway-compatible lentiviral expression vectors: pLX305 dTAG vectors (Addgene #91797/8) or pRRL Strep-HA (described previously43, EF1a promotor driven expression) using LR recombination (ThermoFisher Scientific). […]
(§3) For immunoblotting, whole cell extracts were prepared using RIPA lysis buffer (25 mM Tris/HCl pH 7.6, 150 mM NaCl, 1% NP-40, 1% sodium deoxycholate, 0.1% SDS, EDTA-free protease inhibitor (Roche) and phosphatase inhibitors 2+3 (Sigma- Aldrich)). […] Protein extracts were quantified and normalized using the BCA assay (Thermo Scientific). […]

Strep/HA SLC9B2 = molecular target: T2, Strep/HA SLC9B2 (Homo sapiens, UniProt Q86UD5); assay: Selectivity across SLC9 family: degradation of exogenous Strep/HA SLC9B2; details: HAP1; 250 or 750 nM; 16 hours
T2 construct: expressed in transfected cells; host or cells: HAP1 (lentiviral, pRRL Strep-HA; cDNA synthesized by Genescript)
T2 sequence (Q86UD5 whole entry): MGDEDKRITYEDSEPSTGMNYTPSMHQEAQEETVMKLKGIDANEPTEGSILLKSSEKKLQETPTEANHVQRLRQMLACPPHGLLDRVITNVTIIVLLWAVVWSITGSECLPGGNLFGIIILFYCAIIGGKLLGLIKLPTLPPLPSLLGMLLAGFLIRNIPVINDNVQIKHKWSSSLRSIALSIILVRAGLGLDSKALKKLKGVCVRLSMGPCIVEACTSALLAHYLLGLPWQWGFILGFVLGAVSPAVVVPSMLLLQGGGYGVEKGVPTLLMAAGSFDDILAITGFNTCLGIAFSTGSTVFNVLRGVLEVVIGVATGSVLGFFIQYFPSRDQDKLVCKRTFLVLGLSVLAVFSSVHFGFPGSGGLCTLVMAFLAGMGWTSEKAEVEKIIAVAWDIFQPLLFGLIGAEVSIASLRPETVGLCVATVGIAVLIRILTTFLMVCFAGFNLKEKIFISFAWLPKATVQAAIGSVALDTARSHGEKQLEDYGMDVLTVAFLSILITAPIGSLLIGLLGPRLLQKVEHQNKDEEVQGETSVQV
Description: as §1, §2, §3

Strep/HA SLC9A2 = molecular target: T3, Strep/HA SLC9A2 (Homo sapiens, UniProt Q9UBY0); assay: Selectivity across SLC9 family: degradation of exogenous Strep/HA SLC9A2; details: HAP1; 250 or 750 nM; 16 hours
T3 construct: expressed in transfected cells; host or cells: HAP1 (lentiviral, pRRL Strep-HA; cDNA synthesized by Genescript)
T3 sequence (Q9UBY0 whole entry): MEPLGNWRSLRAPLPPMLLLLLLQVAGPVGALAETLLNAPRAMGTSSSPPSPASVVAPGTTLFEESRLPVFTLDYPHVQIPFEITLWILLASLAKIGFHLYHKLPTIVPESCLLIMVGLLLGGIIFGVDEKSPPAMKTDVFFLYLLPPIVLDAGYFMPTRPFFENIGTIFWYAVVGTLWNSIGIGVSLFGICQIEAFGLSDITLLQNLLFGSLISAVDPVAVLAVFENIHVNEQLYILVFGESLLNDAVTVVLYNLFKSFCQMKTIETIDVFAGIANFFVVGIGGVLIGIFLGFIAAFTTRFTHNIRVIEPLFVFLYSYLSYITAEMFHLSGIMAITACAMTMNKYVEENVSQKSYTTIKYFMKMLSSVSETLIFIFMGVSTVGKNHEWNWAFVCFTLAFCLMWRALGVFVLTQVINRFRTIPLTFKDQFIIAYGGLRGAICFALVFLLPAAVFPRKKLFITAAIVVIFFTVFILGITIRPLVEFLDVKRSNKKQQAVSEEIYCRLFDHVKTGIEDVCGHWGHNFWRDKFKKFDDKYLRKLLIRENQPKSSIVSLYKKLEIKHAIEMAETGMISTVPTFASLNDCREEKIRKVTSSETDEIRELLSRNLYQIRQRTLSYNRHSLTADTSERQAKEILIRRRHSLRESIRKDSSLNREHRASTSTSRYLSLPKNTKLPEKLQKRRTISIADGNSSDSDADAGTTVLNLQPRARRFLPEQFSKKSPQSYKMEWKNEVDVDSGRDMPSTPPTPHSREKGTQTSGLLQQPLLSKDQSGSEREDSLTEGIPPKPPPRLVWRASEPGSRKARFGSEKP
Description: as §1, §2, §3

Strep/HA SLC9A4 = molecular target: T4, Strep/HA SLC9A4 (Homo sapiens, UniProt Q6AI14); assay: Selectivity across SLC9 family: degradation of exogenous Strep/HA SLC9A4; details: HAP1; 250 or 750 nM; 16 hours
T4 construct: expressed in transfected cells; host or cells: HAP1 (lentiviral, pRRL Strep-HA; cDNA synthesized by Genescript)
Description: as §1, §2, §3

dTAG-HA SLC2A3 = molecular target: T5, dTAG-HA SLC2A3 (Homo sapiens, UniProt P11169+Q96SW2); assay: Targeted degradation of dTAG-tagged SLC2A3 (western blot)
T5 construct: expressed in transfected cells
T5 sequence (P11169 with tags, fused parts or gaps): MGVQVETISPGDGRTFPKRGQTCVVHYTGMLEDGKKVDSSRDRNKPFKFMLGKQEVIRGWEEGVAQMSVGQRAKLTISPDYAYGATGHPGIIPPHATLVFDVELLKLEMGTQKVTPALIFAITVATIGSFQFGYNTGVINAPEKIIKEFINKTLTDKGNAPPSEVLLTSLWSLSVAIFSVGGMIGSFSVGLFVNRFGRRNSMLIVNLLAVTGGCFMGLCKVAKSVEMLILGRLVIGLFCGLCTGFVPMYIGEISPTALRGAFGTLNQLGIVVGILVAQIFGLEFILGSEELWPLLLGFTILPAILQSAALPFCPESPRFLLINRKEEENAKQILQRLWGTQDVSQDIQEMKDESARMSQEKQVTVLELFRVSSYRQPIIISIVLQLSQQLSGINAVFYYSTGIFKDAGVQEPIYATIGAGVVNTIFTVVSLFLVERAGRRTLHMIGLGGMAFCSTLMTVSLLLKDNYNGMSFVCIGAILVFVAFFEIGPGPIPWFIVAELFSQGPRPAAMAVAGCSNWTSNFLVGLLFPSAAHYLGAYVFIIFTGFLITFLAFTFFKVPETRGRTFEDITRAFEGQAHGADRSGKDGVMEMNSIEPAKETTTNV
T5 sequence (Q96SW2 whole entry): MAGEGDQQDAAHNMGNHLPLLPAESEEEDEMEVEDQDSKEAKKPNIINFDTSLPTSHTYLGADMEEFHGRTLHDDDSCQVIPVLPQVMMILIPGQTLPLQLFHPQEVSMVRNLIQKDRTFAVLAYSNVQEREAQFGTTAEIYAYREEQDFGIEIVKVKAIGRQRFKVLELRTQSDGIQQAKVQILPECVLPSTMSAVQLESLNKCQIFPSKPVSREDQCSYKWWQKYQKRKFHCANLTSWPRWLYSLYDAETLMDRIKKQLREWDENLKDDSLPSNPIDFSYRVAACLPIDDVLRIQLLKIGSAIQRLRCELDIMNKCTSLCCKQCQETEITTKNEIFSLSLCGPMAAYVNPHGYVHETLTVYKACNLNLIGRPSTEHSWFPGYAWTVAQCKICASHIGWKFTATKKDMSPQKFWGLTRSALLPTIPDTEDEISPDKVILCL
T5 sequence (Q16531 whole entry partner): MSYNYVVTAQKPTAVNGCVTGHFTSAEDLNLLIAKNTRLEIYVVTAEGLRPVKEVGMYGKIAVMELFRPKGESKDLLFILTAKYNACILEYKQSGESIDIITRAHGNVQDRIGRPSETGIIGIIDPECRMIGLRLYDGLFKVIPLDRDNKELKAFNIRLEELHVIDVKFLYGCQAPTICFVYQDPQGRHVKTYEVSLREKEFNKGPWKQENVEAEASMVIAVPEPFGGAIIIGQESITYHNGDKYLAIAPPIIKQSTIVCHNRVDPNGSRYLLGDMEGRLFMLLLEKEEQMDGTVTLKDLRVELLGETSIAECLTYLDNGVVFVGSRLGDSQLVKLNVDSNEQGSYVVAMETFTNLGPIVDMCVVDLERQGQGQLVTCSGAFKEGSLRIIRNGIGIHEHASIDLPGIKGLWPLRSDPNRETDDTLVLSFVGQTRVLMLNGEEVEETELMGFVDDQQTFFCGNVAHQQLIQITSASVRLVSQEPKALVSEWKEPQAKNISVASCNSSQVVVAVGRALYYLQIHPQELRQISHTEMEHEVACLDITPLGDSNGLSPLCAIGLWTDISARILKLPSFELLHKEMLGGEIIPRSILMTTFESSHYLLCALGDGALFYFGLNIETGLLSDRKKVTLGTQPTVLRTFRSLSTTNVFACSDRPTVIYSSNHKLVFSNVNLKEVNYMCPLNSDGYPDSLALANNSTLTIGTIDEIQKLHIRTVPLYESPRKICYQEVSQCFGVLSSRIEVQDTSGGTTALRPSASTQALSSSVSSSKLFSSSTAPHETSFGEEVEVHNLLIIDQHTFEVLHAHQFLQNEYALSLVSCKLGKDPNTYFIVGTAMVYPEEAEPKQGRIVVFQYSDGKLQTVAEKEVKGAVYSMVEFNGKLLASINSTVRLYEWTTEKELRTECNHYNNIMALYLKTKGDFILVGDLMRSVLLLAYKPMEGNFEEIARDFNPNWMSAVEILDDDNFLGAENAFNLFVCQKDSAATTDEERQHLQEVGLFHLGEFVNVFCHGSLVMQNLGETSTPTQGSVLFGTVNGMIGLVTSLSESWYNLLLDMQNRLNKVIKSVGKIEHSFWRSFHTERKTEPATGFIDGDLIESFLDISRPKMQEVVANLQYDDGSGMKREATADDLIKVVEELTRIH
Description: (§4) (C)HAP1 cells expressing dTAG-HA SLC1A5, 2A3, 30A9, 35B2, MTCH2, and 33A1 were treated for 24 hours with 0.5 µM of dTAG7 or dTAG13, as indicated. HAP1 cells expressing dTAG-HA SLC2A1 and 16A1 were treated for 24 hrs with 0.5 µM of dTAG7. HAP1 cell lines expressing dTAG-HA SLC39A7, dTAG-HA SLC4A4, and SLC7A3-dTAG-HA were treated for 48 hrs with 0.5 µM of dTAG13.
as §2, with “Scientific). For the generation of lentiviral stable overexpression cells, HEK293T cells were transfected with psPAX2 (Addgene #12260) and pMD2.G (Addgene #12259) and expression vectors using polyethylenimine (PEI). 12 hours post transfection medium was replaced with fresh medium. The medium, containing the virus, was harvested 48 hours later, filtered (0.45 µm), supplemented with 5 µg/ml Polybrene (Hexadimethrine bromide, Sigma) and added to target cells.” for “Scientific).”
as §3
(§5) SLCs were ectopically expressed as fusions to a mutated FKBP domain, also known as the dTAG system. […]

dTAG-HA SLC33A1 = molecular target: T6, dTAG-HA SLC33A1 (Homo sapiens, UniProt O00400+Q96SW2); assay: Targeted degradation of dTAG-tagged SLC33A1 (western blot); details: HAP1, 0.5 µM
T6 construct: expressed in transfected cells
T6 sequence (O00400 with tags, fused parts or gaps): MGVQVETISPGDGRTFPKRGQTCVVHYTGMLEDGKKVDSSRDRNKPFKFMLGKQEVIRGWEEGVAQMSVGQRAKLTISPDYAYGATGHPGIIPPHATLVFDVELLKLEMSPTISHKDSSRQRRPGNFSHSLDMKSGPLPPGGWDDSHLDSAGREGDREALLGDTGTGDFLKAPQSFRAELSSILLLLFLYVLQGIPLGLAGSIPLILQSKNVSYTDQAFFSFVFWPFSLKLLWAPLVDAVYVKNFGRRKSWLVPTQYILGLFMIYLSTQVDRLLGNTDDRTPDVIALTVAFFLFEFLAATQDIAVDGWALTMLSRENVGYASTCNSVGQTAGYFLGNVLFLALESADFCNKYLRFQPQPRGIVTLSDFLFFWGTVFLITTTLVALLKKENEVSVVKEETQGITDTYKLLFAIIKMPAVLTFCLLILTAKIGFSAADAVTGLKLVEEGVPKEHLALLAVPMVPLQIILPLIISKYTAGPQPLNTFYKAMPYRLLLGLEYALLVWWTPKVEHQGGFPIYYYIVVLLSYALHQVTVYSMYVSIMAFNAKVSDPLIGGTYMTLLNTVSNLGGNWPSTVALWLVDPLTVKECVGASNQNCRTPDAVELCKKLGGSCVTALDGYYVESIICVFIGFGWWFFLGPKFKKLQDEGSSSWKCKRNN
T6 sequence (Q96SW2 whole entry): as the sequence (Q96SW2 whole entry) above
T6 sequence (Q16531 whole entry partner): as the sequence (Q16531 whole entry partner) above
Description: as §4
(§6) SLC1A5, SLC2A1, SLC2A3, SLC16A1, SLC38A1, SLC38A2 were obtained as gateway-compatible pENTR/pDONR vectors from the Harvard PlasmID Repository. SLC39A7 was obtained from Dharmacon, GE Healthcare. The following vectors were synthesized by Genescript: SLC4A4, SLC7A3, SLC38A9, SLC25A1, SLC9A1, SLC9A2, SLC9A3, SLC9A4, SLC9A5, SLC9A6, SLC9A7, SLC9A8, and SLC9B2. […]
as §3, §5

dTAG-HA SLC16A1 = molecular target: T7, dTAG-HA SLC16A1 (Homo sapiens, UniProt P53985+Q96SW2); assay: Targeted degradation of dTAG-tagged SLC16A1 (western blot); details: HAP1, 0.5 µM, 24, 48 or 72 hours
T7 construct: expressed in transfected cells
Description: as §4, §6, §3, §5

abundance of exogenous SLC9A6 (Strep/HA SLC9A6): not significantly affected
abundance of exogenous SLC9B2 (Strep/HA SLC9B2): not significantly affected
degradation of exogenous SLC9A2 (Strep/HA SLC9A2): prompted degradation
degradation of exogenous SLC9A4 (Strep/HA SLC9A4): prompted degradation
SMILES: Cc1cc(-c2ccc(C(=O)NCCOCCOCCOCCOCCNc3cccc4c3C(=O)N(C3CCC(=O)NC3=O)C4=O)cc2N2CCC(c3[nH]cnc3C)CC2)ccc1F (stereo not drawn) [d9A1-2]

initiation of degradation (time course) (dTAG-HA SLC2A3; HAP1, dTAG-HA SLC2A3, 0.5 µM): ≤ 6 h
initiation of degradation (time course) (dTAG-HA SLC33A1): ≤ 6 h
reversibility of degradation of the target SLC (dTAG-HA SLC16A1): reversible degradation
SMILES: CC[C@H](C(=O)N1CCCC[C@H]1C(=O)O[C@H](CCc1ccc(OC)c(OC)c1)c1ccccc1OCC(=O)NCCCOCCOCCOCCCNC(=O)COc1cccc2c1C(=O)N(C1CCC(=O)NC1=O)C2=O)c1cc(OC)c(OC)c(OC)c1 (stereo partly drawn) [dTAG7]

SMILES: CC[C@H](C(=O)N1CCCC[C@H]1C(=O)O[C@H](CCc1ccc(OC)c(OC)c1)c1ccccc1OCC(=O)NCCCCCCOc1cccc2c1C(=O)N(C1CCC(=O)NC1=O)C2=O)c1cc(OC)c(OC)c(OC)c1 (stereo partly drawn) [dTAG13]
degradation of dTAG-HA SLC2A3 (dTAG-HA SLC2A3; HAP1, LS180 and HCT15 cells, 0.5 µM, 72 hours): completely degraded
degradation of SLC2A3 tagged on the N- or C-terminus with dTAG-HA (dTAG-HA SLC2A3; two HAP1 cell lines, 24 hours): degraded in both
